Source: ChEMBL document CHEMBL1201862, “PubChem BioAssay data set” (2004)
Active and inactive are the calls of the source.

Experiments:
[1] = biological target: Peroxisome proliferator-activated receptor gamma/Nuclear receptor coactivator 1 (Homo sapiens, UniProt P37231); experiment: (§1) TR-FRET dose response biochemical High Throughput Screening assay for agonists of the steroid receptor coactivator 1 (SRC-1) recruitment by the peroxisome proliferator-activated receptor gamma (PPAR gamma): non-selective agonists. [Related pubchem assays (depositor defined):AID1300, AID1808, AID504735, AID631]; format: protein assay
[2] = biological target: Peroxisome proliferator-activated receptor gamma/Nuclear receptor coactivator 3 (Homo sapiens, UniProt P37231); experiment: as §1, with “3 (SRC-3)” for “1 (SRC-1)”, “assays: 1301 (Confirmation screen.), 1048 (Primary screen.)]” for “assays (depositor defined):AID1300, AID1808, AID504735, AID631]”; format: functional
[3] = biological target: Peroxisome proliferator-activated receptor gamma/Nuclear receptor coactivator 2 (Homo sapiens, UniProt P37231); experiment: TR-FRET dose response biochemical High Throughput Screening assay for agonists of the steroid receptor coactivator 2 (SRC-2) recruitment by the peroxisome proliferator-activated receptor gamma (PPAR gamma): non-selective agonists. [Related pubchem assays: 1297, 1032 ]; format: functional
[4] = biological target: DNA dC->dU-editing enzyme APOBEC-3A (Homo sapiens, UniProt P31941); experiment: Dose Response confirmation of small molecule APOBEC3A DNA Deaminase Inhibitors via a fluorescence-based single-stranded DNA deaminase assay. [Related pubchem assays (depositor defined):AID493011, AID493024]; format: functional
[5] = biological target: DNA dC->dU-editing enzyme APOBEC-3G (Homo sapiens, UniProt Q9HC16); format: functional;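 further: Dose-response counterscreen measuring inhibition of APOBEC3G DNA deaminase activity, run while confirming APOBEC3A inhibitors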
cells = format: functional
Cytochrome P450 2C19 = Cytochrome P450 2C19 (Homo sapiens, UniProt P33261); experiment: Cytochrome panel assay with activity outcomes. Panel member name: p450-cyp2c19 Compounds with AC50 equal or less than 10 uM are considered active; format: functional; conditions: read-out: AC50
[6] = biological target: T1, High affinity choline transporter 1 (Homo sapiens, UniProt Q9GZV3); experiment: CHT inhibitors, dose response, cell-based, 5-point CRC, membrane potential dye (AID 504840); format: functional
T1 sequence (Q9GZV3 whole entry): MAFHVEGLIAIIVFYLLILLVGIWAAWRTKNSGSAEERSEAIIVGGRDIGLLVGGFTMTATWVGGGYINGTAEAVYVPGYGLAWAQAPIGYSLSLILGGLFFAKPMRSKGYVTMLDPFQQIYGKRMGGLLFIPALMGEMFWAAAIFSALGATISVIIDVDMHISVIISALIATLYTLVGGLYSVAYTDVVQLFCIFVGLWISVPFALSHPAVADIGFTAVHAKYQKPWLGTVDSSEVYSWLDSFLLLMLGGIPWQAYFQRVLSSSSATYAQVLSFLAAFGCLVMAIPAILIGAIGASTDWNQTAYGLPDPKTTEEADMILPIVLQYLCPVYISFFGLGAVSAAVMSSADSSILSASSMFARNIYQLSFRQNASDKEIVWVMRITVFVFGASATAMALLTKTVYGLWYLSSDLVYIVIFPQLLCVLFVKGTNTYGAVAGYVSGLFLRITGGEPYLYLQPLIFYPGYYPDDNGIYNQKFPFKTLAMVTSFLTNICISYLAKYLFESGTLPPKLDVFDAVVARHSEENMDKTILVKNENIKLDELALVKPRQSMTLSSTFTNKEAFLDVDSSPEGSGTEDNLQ

Cytochrome P450 2D6 = Cytochrome P450 2D6 (Homo sapiens, UniProt P10635);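 further: CYP2D6 member of a cytochrome P450 panel assay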
Cytochrome P450 1A2 = biological target: T2, Cytochrome P450 1A2 (Homo sapiens, UniProt P05177);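 further: PubChem cytochrome P450 panel assay, CYP1A2 panel member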
T2 sequence (P05177 whole entry): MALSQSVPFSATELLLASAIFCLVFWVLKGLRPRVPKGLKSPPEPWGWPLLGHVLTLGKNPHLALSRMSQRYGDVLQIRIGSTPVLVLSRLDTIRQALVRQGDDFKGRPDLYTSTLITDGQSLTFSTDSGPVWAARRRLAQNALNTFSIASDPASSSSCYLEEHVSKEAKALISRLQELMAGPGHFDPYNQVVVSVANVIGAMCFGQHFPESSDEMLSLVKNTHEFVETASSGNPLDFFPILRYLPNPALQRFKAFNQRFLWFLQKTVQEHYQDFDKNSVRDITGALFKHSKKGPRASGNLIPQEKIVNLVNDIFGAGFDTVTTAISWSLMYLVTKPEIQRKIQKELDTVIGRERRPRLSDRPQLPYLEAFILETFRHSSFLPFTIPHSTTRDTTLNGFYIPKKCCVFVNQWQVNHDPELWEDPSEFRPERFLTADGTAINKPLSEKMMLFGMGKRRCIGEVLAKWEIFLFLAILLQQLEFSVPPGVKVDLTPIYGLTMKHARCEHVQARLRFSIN

Cytochrome P450 3A4 = Cytochrome P450 3A4 (Homo sapiens, UniProt P08684);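 further: CYP3A4 tested as one member of a cytochrome P450 panel screen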
Cytochrome P450 2C9 = Cytochrome P450 2C9 (Homo sapiens, UniProt P11712)
Prothrombin = Prothrombin (Homo sapiens, UniProt P00734); experiment: Thrombin 1536 HTS Dose Response Confirmation. [Related pubchem assays: 1046 (Thrombin 1536 HTS; hits were confirmed in this assay)]; format: functional
[7] = biological target: T3, Short transient receptor potential channel 4 (Mus musculus, UniProt Q9QUQ5); experiment: mouse TRPC4 channel inhibitors, dose response, cell-based, HEK293 TRPC4/mu-opioid, Fluo-4 calcium (AID 434942); format: functional;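 further: potency of inhibitors blocking the TRPC4 calcium response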
T3 sequence (Q9QUQ5 whole entry): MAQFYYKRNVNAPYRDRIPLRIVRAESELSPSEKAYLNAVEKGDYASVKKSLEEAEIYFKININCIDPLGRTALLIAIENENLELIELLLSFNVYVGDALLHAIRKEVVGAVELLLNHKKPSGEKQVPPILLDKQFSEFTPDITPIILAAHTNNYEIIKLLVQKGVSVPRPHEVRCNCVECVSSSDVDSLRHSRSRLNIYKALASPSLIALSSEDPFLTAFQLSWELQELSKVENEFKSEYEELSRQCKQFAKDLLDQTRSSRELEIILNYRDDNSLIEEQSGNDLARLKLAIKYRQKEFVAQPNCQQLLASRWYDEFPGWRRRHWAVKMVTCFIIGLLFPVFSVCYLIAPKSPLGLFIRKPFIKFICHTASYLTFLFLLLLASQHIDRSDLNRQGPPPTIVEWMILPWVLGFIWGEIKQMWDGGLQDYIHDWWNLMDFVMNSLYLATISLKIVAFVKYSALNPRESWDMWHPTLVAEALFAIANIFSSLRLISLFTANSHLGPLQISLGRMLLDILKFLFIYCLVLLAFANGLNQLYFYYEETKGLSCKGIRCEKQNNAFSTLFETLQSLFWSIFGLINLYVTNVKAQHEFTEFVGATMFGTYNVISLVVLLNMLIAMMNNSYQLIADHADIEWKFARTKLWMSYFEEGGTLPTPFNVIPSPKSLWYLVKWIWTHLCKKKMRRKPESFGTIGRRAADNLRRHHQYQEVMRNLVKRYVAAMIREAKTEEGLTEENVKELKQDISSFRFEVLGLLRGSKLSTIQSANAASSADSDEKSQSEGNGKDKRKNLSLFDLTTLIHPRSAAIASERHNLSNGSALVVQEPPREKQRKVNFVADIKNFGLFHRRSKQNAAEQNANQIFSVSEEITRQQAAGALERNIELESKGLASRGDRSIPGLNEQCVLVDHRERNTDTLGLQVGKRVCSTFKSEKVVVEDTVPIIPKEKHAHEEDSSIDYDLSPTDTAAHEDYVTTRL

Protein skinhead-1 = biological target: T4, Protein skinhead-1 (Caenorhabditis elegans, UniProt P34707); format: functional
T4 sequence (P34707 whole entry): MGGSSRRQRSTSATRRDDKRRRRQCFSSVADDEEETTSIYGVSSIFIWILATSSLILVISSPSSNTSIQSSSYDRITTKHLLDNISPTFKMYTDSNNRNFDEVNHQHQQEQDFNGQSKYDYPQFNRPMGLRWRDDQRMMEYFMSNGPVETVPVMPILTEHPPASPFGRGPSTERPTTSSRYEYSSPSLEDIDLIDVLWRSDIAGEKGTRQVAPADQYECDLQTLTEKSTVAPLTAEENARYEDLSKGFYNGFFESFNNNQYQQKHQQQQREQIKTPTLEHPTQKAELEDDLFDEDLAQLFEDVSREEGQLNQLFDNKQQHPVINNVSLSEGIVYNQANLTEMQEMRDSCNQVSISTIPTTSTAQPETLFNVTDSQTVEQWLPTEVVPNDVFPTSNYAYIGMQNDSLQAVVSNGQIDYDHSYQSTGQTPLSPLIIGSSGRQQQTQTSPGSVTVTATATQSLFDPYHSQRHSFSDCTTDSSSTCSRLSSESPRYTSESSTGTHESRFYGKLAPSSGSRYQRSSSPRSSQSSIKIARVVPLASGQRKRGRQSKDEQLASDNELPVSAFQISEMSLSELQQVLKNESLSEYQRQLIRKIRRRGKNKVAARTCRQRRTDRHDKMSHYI

DNA dC->dU-editing enzyme APOBEC-3G, sequence (Q9HC16 whole entry): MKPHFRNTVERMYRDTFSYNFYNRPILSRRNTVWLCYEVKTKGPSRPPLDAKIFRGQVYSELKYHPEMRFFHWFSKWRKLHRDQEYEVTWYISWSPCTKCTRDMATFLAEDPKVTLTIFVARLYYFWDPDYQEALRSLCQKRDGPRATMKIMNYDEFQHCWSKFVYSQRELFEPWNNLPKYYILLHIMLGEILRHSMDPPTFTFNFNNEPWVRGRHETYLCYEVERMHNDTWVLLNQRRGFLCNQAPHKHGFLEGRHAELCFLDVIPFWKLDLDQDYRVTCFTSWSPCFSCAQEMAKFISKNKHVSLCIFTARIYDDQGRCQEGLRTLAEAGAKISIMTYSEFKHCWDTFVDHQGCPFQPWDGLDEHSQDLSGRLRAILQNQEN
DNA dC->dU-editing enzyme APOBEC-3A, sequence (P31941 whole entry): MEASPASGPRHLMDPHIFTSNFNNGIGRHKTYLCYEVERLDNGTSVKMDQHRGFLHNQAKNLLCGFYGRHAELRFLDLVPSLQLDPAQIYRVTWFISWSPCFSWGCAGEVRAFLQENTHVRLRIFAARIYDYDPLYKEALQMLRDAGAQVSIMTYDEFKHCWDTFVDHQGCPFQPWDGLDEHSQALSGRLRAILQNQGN
Peroxisome proliferator-activated receptor gamma/Nuclear receptor coactivator 3, sequence (P37231 whole entry): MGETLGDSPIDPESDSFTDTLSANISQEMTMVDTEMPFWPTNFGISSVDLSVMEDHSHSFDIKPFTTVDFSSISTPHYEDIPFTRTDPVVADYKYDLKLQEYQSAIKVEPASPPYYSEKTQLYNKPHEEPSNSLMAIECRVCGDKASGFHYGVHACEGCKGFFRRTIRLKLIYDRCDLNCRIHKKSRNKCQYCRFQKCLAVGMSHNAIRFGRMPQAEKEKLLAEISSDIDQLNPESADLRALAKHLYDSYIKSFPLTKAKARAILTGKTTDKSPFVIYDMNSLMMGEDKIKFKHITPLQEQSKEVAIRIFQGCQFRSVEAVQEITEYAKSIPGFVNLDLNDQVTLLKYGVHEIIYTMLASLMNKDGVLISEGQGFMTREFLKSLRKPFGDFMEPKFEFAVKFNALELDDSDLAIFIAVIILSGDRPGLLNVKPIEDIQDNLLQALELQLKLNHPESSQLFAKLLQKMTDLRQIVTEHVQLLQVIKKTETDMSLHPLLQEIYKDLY
Peroxisome proliferator-activated receptor gamma/Nuclear receptor coactivator 3, sequence (Q9Y6Q9 whole entry, further chain): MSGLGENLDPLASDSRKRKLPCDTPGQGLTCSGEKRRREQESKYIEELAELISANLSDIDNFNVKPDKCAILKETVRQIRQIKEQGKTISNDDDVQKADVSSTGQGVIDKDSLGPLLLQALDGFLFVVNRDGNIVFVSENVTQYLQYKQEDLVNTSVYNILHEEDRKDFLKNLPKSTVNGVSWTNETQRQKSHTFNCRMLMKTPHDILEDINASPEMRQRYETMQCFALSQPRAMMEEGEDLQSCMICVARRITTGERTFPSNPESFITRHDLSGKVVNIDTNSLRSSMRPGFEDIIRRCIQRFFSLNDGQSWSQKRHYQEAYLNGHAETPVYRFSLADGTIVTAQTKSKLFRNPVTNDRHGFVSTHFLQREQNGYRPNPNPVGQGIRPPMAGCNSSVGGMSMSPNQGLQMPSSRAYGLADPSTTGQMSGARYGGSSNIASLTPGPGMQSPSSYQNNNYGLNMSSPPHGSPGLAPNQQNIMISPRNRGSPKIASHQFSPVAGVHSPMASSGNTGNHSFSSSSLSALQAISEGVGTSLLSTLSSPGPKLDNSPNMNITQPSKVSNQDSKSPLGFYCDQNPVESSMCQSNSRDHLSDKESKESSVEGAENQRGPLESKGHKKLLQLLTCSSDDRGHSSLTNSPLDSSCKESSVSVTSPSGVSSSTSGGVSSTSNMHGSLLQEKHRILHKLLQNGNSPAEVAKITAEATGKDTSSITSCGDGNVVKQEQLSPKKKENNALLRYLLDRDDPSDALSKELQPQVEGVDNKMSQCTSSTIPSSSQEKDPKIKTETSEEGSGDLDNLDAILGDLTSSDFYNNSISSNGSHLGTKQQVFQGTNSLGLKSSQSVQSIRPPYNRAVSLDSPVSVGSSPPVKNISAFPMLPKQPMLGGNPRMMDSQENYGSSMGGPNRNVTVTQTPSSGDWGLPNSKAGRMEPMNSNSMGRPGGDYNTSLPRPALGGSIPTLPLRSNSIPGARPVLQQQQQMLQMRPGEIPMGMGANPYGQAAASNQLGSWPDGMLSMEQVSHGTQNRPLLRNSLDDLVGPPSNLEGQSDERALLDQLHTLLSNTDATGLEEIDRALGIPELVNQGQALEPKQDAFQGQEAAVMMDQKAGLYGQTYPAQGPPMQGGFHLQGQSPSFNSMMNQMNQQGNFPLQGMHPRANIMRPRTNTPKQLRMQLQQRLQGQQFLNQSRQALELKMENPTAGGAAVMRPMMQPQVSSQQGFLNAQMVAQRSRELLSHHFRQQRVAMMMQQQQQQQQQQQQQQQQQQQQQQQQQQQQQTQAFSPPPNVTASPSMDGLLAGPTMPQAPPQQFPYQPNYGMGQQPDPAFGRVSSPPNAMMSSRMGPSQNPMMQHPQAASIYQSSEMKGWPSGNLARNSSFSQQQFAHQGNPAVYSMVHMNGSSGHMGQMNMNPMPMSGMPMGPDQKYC
Peroxisome proliferator-activated receptor gamma/Nuclear receptor coactivator 1, sequence (P37231 whole entry): as the sequence (P37231 whole entry) above
Peroxisome proliferator-activated receptor gamma/Nuclear receptor coactivator 1, sequence (Q15788 whole entry, further chain): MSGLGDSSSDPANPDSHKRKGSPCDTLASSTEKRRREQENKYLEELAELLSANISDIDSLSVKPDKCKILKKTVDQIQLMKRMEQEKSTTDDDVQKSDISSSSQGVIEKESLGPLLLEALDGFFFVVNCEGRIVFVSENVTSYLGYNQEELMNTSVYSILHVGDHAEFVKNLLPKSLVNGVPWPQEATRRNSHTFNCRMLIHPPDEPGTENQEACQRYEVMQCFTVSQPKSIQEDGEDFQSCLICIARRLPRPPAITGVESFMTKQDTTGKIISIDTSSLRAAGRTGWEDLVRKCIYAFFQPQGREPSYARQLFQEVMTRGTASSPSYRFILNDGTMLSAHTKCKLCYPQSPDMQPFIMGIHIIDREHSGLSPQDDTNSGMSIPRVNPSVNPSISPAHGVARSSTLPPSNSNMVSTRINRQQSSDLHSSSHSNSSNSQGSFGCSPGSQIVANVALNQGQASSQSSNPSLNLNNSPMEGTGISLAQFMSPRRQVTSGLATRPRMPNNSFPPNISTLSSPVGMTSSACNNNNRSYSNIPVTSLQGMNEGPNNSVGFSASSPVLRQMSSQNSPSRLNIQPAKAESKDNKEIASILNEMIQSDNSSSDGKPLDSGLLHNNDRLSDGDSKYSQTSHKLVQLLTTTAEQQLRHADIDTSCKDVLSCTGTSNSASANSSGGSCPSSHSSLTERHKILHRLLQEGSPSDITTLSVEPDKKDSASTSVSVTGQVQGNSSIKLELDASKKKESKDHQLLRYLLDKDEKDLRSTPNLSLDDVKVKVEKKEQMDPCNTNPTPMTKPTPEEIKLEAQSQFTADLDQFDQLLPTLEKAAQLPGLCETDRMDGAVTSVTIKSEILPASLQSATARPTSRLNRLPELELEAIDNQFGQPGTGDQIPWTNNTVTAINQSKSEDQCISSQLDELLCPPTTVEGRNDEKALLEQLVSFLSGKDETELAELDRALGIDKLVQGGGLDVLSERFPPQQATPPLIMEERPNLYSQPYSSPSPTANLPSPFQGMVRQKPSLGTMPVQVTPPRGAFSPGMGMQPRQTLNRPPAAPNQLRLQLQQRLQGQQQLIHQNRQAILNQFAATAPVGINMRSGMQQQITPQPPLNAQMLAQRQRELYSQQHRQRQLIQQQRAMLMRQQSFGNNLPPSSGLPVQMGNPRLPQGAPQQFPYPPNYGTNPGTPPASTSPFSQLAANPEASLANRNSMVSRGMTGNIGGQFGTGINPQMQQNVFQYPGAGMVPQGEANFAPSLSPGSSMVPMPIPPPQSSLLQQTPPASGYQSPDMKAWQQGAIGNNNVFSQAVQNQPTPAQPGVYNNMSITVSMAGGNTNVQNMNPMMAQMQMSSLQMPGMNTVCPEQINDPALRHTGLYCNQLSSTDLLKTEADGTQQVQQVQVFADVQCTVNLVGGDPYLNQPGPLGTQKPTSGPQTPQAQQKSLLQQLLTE
Cytochrome P450 2D6, sequence (P10635 whole entry): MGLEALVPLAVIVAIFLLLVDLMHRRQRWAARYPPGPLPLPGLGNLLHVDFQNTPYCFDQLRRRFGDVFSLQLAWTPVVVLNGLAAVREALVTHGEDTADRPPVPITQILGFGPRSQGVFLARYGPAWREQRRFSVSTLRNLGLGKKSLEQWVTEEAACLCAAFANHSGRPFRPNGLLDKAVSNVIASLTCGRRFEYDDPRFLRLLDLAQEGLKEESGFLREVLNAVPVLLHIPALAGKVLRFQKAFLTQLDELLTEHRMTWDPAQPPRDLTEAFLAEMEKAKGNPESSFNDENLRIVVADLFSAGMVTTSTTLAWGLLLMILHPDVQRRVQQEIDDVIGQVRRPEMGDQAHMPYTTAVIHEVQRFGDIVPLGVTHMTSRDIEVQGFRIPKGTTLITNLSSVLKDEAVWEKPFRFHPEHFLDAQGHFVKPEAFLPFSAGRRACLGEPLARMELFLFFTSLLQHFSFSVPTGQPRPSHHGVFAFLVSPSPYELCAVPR

N#Cc1ccc(-c2ccc3c(c2)OCO3)nc1SCC(=O)OCc1ccccc1
EC50 [1]: 5.85 µM (active)
EC50 [2]: 20.4 µM (not active)
EC50 [3]: 7.23 µM (active)

CN(C)c1cc[n+](CC(=O)Nc2ccc(OC(F)F)cc2)cc1
IC50 [4]: 2.44 µM (active)
IC50 [5]: 4.21 µM (active)

Sc1ncnc2sc(-c3ccccc3)cc12
EC50 [1]: 8.82 µM (active)
EC50 [2]: > 79.4 µM (not active)
EC50 [3]: 34.7 µM (not active)
IC50 (cells): 49.3 µM (active)

CCCCn1nc2cc(C(=O)NC3CCCc4ccccc43)ccc2c1OCC (stereo unspecified)
AC50 (Cytochrome P450 2C19): 39.8 µM (inconclusive)
IC50 [6]: 12.9 µM (active)
AC50 (Cytochrome P450 2D6): 22.4 µM (inconclusive)
AC50 (Cytochrome P450 1A2): 39.8 µM (inconclusive)
AC50 (Cytochrome P450 3A4): 35.5 µM (inconclusive)
AC50 (Cytochrome P450 2C9): 22.4 µM (inconclusive)

N=c1n(CCO)c2ccccc2n1Cc1ccccc1
IC50 (Prothrombin): > 50 µM (not active)
EC50 [7]: 5.31 µM (active)

C[N+]1(C)CCN(c2ccccc2)CC1 [DIMETHYLPHENYLPIPERAZINIUM IODIDE]
IC50 [4]: 1.93 µM (active)
IC50 [5]: 2.62 µM (active)

CSCCNCc1cn(-c2ccc(F)cc2F)nc1-c1ccccc1C
EC50 [7]: 5.96 µM (active)

Cn1c(=O)cc(SCC(=O)N2CCC3(CC2)OCCO3)c2ccc(Cl)cc21
EC50 [1]: > 79.4 µM (inactive)
EC50 [2]: > 79.4 µM (not active)
EC50 [3]: > 79.4 µM (not active)

O=[N+]([O-])c1ccc2nc(N3CCCC3)sc2c1
IC50 [4]: 5.31 µM (active)
IC50 [5]: 4.86 µM (active)
IC50 (Protein skinhead-1): 39.1 µM (active)
